From patent publication US20250376466A1, “ESTER COMPOUNDS AND USE THEREOF” (NANJING REJU THERAPEUTICS, CO., LTD., priority 2022, published 2025)

Experiments:
hypertrophic scars = experiment: Rabbit ear hypertrophic scar model; format: in vivo, New Zealand white rabbits; conditions: 150 μM, 100 μL injected into lesion once a week, 4 injections, from postoperative Day 14; FIG. 12
Protocol: In this example, the efficacy of the compounds of the present disclosure was tested on hypertrophic scars in a rabbit ear hypertrophic scar animal model. Briefly, 10 New Zealand white rabbits, male, 3 months old, were used. The New Zealand rabbits were anaesthetized with sodium pentobarbital and six circular full-thickness wounds with a diameter of 10 mm were made on the ventral surface of each ear by removing the epidermis, dermis and perichondrium to expose the cartilage. The rabbits were randomly divided into control and RZ001 experimental groups. On postoperative Day 14, after complete re-epithelialization of the wound surface, the compound (150 μM, 100 μL, dissolved in DMSO solution) or negative control DMSO 100 μL was injected into the center of each lesion from the wound edge once a week for a total of 4 injections. Improvement of scar formation by the compound was assessed by SEI (Scar Excess Index).

renal fibrosis = experiment: Renal fibrosis animal model (ureter ligation); format: in vivo, mice; conditions: intraperitoneal (IP) injection from 2nd week of modelling; FIG. 11
Protocol: In this example, the efficacy of the compound of the present disclosure was tested on renal fibrosis in an animal model of renal fibrosis. Briefly, C57BL/6J mice, male, 7 to 8 weeks old, were used. The mice were anaesthetized, made to lie supine on a foam board, and disinfected with iodophor, and a longitudinal incision was made in the skin in the middle of the lower abdomen to locate the white line of the abdominal muscle, where the abdominal muscle, fascia and peritoneal layer were dissected. After exposing the surgical field, the kidneys were exposed by pushing the stomach and mesentery of the mice to the right side with a gauze soaked with saline. The model of renal fibrosis was constructed by locating the transparent ureter from the renal pelvis along the renal artery, separating the left ureter, ligating the upper ⅓ of the left ureter, suturing the incision layer by layer, and finally disinfecting with iodophor. Dosing via intraperitoneal injection was started from the 2nd week of modelling. At the end of the experiment, the mouse serum was collected and kidney tissues were taken for Masson staining index assay.

[1] = tested on: normal A549 cells, IMR90 cells, RPE cells, mouse chondrocytes, mouse skin fibroblasts; experiment: Cell viability of normal cells (CellTiter-Glo); format: cell-based, human; conditions: 1 μM, 72 hours, FIGS. 2A to 2E
Protocol: (§1) In this example, human non-small cell lung cancer cell line (A549 cells), human embryonic lung fibroblast cell line (IMR90 cells), human retinal pigment epithelial cells (RPE cells), mouse chondrocytes, and mouse skin fibroblasts were selected. The cells above were induced to obtain senescent cells by etoposide (10 μM). The effect of the target compounds RZ001-RZ006 and RZ201 on the viability of normal and senescent cells above was detected, thereby evaluating the specific killing effect of the prodrugs RZ001-RZ006 and RZ201 on senescent cells above.
(§2) Briefly, senescent and normal cells above were selected and plated separately (96-well plates). After adding the compounds RZ001-RZ006 and RZ201 (concentration: 1 μM) for 72 hours, CellTiter-Glo® Luminescent Cell Viability Assay Kit (Promega) was used to detect cell viability, and the results were shown in FIGS. 2A to 2E.

[2] = tested on: oxygen-induced retinopathy (OIR); experiment: Mouse model of oxygen-induced retinopathy (OIR); format: in vivo; conditions: intravitreal (IVT), 1 μl of 200 μM at P12, retinas at P17, IB4 staining; FIG. 3
Protocol: The efficacy of the prodrugs RZ001-RZ006 as well as RZ201 were investigated in a mouse model of oxygen-induced retinopathy (OIR) which to some extent indicates an in vivo model of retinopathy of prematurity (ROP), diabetic retinopathy, and wet age-related macular degeneration. From postnatal Day 7 (P7) to Day 12 (P12), C57Bl/6 mouse pups and their CD1 foster mothers were exposed to hyperoxia (75% O2). At P12, the animals were injected intravitreally with 1 μl of the test composition formulated in 1% DMSO, 10% Tween 80, and 20% PEG-400 (200 μM the compound) and returned to room air until Day 17 (P17). On P17, the eyeballs were enucleated and the retinas were dissected for vascular staining. To determine the area of avascularity or angiogenesis, the retinas were flattened and stained with isolectin B4 (IB4).

[3] = tested on: senescent A549 cells, IMR90 cells, RPE cells, mouse chondrocytes, mouse skin fibroblasts; experiment: Cell viability of senescent cells (CellTiter-Glo); format: cell-based, human; conditions: 1 μM, 72 hours; etoposide (10 μM)-induced senescent cells; FIGS. 2A to 2E
Protocol: as §1, §2

| Compound | scar excess index (SEI) (hypertrophic scars) | pathology (kidney, Masson staining) (renal fibrosis) | serum creatinine (Cr) levels (renal fibrosis) | serum urea nitrogen (BUN) levels (renal fibrosis) | cytotoxicity against normal cells (cell viability) [1] | angiogenesis [2] | avascular zone [2] | cytotoxicity against senescent cells (cell viability) [3] |
| --- | --- | --- | --- | --- | --- | --- | --- | --- |
| Cc1c(-c2ccc(N3CCc4cccc(C(=O)Nc5nc6ccccc6s5)c4C3)nc2C(=O)OCOC(=O)C(C)C)cnn1CC12CC3CC(CC(C3)C1)C2 [RZ001] | statistically significant improvement | statistically significant improvements | statistically significant improvements | statistically significant improvements |  |  |  |  |
| Cc1oc(=O)oc1COC(=O)c1nc(N2CCc3cccc(C(=O)Nc4nc5ccccc5s4)c3C2)ccc1-c1cnn(CC23CC4CC(CC(C4)C2)C3)c1C [RZ201] |  | statistically significant improvements | statistically significant improvements | statistically significant improvements | without significant killing effects on normal cells | statistically significant improvements | statistically significant improvements | cytotoxicity primarily against senescent cells |
